Experimental findings from ChEMBL document CHEMBL5614367, “Hydroxamic acid hybrids: Histone deacetylase inhibitors with anticancer therapeutic potency” (Eur J Med Chem, 2023) are described below.

Series [1] concerns MCF7. Put plainly: Antiproliferative activity against human MCF7 cells assessed as cell growth inhibition by SRB assay. The format is functional. (In general: Sulforhodamine B stains cellular protein and so reports cell mass.)
Series [2] concerns the target T1, Protein deacetylase HDAC6 (Homo sapiens, UniProt Q9UBN7).
T1 sequence (Q9UBN7 whole entry): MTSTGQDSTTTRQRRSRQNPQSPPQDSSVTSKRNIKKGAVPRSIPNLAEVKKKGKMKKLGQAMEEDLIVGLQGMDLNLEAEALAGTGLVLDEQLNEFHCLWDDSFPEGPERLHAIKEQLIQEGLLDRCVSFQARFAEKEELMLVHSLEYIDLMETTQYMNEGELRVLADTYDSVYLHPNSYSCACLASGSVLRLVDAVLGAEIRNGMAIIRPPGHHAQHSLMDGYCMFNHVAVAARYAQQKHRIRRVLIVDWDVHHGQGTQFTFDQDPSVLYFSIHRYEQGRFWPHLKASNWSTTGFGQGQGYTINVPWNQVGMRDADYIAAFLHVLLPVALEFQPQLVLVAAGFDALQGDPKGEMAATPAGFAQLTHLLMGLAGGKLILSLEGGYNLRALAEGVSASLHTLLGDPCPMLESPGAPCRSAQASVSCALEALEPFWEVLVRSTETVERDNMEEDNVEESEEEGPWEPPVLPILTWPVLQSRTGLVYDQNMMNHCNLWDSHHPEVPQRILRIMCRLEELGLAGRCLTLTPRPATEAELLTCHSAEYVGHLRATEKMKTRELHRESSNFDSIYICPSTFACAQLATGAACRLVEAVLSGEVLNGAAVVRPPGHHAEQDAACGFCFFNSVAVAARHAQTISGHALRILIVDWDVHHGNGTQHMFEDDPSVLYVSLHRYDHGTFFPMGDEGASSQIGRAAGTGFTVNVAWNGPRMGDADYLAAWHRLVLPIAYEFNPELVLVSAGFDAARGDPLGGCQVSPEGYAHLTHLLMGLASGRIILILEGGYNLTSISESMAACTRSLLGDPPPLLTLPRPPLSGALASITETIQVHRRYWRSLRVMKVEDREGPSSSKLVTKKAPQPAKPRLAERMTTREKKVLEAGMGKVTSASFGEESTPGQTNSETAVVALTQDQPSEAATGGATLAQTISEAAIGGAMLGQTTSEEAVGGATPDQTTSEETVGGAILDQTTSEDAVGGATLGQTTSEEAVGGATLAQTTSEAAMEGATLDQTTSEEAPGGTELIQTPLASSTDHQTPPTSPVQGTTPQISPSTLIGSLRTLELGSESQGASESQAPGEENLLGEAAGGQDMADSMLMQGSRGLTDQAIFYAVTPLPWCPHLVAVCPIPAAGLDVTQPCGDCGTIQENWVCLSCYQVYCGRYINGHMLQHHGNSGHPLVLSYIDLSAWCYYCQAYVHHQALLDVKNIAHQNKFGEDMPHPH
Kind of series: Inhibition of HDAC6 in human HeLa cells incubated for 72 hrs by ELISA. The class given is cell-based. On the technique in general: In an ELISA, binding on a coated surface is turned into a signal by an enzyme label.

For the next series, the system named is HeLa. Put plainly: Antiproliferative activity against human HeLa cells assessed as cell growth inhibition by SRB assay. The format is functional.
The target in another series is Histone deacetylase 1 (Homo sapiens, UniProt Q13547). Kind of series: Inhibition of HDAC1 in human HeLa cells incubated for 72 hrs by ELISA. The class given is cell-based.
In series [3] the test system is A549. Kind of series: Antiproliferative activity against human A549 cells assessed as cell growth inhibition by SRB assay. The class given is functional.
Series [4] has as its system K562. Put plainly: Antiproliferative activity against human K562 cells assessed as cell growth inhibition by SRB assay. The format is functional.
In a further series the test system is Huh-7. Kind of series: cells. The format is functional, cell-based. Particulars: Homo sapiens, Huh-7, 72 h.
Series [5] deals with HCT-116. Put plainly: cells. The class given is functional, cell-based. Particulars: Homo sapiens, HCT-116, 72 h.
Series [6] concerns the target T1, Protein deacetylase HDAC6. Put plainly: Inhibition of HDAC6 (unknown origin).
A further series deals with HepG2. Kind of series: cells. The class given is functional, cell-based. To be noted: Homo sapiens, HepG2, 72 h.
The next series concerns 518A2. Put plainly: cells. The class given is functional, cell-based. Particulars: Homo sapiens, 518A2, 72 h.
For a further series, the system named is HCT 116 TP53(-/-). Kind of series: cells. To be noted: Homo sapiens, 72 h. The format is functional, cell-based.
The nature of series [7]: Cytotoxicity against human L02 cells. The format is toxicity, cell-based.
Series [8] can be described thus: Cytotoxicity against human BEAS-2B cells. The format is toxicity, cell-based.
Series [9] has as its system Plasmodium falciparum. Put plainly: Antiplasmodial activity against Plasmodium falciparum 3D7 assessed as reduction in parasite growth incubated for 3 days by ELISA analysis. The class given is functional, organism-based. To be noted: 3D7, 72 h.
The test system of series [10] is HL-60. Kind of series: Cytotoxicity against human HL-60 cells assessed as reduction in cell viability incubated for 72 hr by MTT assay. The format is functional, cell-based. Particulars: HL-60, 72 h. (Tetrazolium dyes change colour on reduction, which living cells bring about.)
For the next series, the system named is MOLM-13. Kind of series: Antiproliferative activity against human MOLM-13 cells assessed as reduction in cell viability incubated for 72 hrs by MTT assay. The class given is functional, cell-based. To be noted: MOLM-13, 72 h.
Series [11] concerns the target T1, Protein deacetylase HDAC6. Put plainly: Inhibition of human recombinant HDAC6 using ZMAL (Z-Lys(Ac)-AMC as fluorogenic substrate pre-incubated for 30 mins followed by substrate addition and measured for 1 hr by Fluorescence based analysis.
The subject of series [12] is Plasmodium falciparum. Put plainly: Antiplasmodial activity against artemisinin-resistant Plasmodium falciparum Dd2 R539T assessed as reduction in parasite growth incubated for 3 days by ELISA analysis. The class given is functional, organism-based. To be noted: 72 h.
Series [13] has as its system K562. Kind of series: Cytotoxicity against human K562 cells assessed as reduction in cell viability incubated for 72 hrs by Cell-titer Glo based analysis. The class given is functional. Particulars: K562, 72 h.
The next series has as its system NALM-6. Kind of series: Cytotoxicity against human NALM-6 cells assessed as reduction in cell viability incubated for 72 hrs by MTT assay. The format is functional, cell-based. Particulars: NALM-6, 72 h.
Series [14] relates to Plasmodium falciparum. Put plainly: Antiplasmodial activity against Plasmodium falciparum Dd2 assessed as reduction in parasite growth incubated for 3 days by ELISA analysis. The class given is functional, organism-based. To be noted: Dd2, 72 h.
Series [15] has as its system HL-60. Kind of series: Cytotoxicity against human HL-60 cells assessed as reduction in cell viability incubated for 72 hrs by Cell-titer Glo based analysis. The format is functional. Particulars: HL-60, 72 h.
Another series relates to HPBALL. Put plainly: Cytotoxicity against human HPBALL cells assessed as reduction in cell viability incubated for 72 hrs by MTT assay. The class given is functional, cell-based.
The subject of series [16] is HCT-116. Put plainly: cells. The class given is functional, cell-based. Particulars: Homo sapiens, HCT-116, 48 h.
Series [17] has as its system A549. Kind of series: Antiproliferative activity against human A549 cells assessed as inhibition of cell growth incubated for 48 hrs by SRB assay. The class given is functional, cell-based. To be noted: A549, 48 h.
Another series concerns PC-3. Put plainly: Antiproliferative activity against human PC-3 cells incubated for 48 hrs by colorimetric method. The class given is functional, cell-based. To be noted: PC-3, 48 h.
A further series concerns SW-620. Put plainly: Antiproliferative activity against human SW620 cells incubated for 48 hrs by colorimetric method. To be noted: SW-620, 48 h. The format is functional, cell-based.
A further series deals with NCI-H23. Kind of series: Antiproliferative activity against human NCI-H23 cells incubated for 48 hrs by colorimetric method. To be noted: NCI-H23, 48 h. The format is functional, cell-based.
The target of series [18] is T1, Protein deacetylase HDAC6. Kind of series: Inhibition of HDAC6 (unknown origin) incubated for 30 mins in presence of fluorimetric assay.
Series [19] relates to HL-60. Put plainly: Antiproliferative activity against human HL-60 cells. The class given is functional, cell-based.
A further series concerns SGC-7901. Kind of series: Antiproliferative activity against human SGC-7901 cells. The format is functional, cell-based.
In series [20] the test system is HCT-116. Kind of series: cells. To be noted: Homo sapiens.
Description: Antiproliferative activity against human HCT-116 cells
Series [21] deals with A549. Kind of series: Antiproliferative activity against human A549 cells.
The next series concerns MDA-MB-231. Put plainly: Antiproliferative activity against human MDA-MB-231 cells.
A further series concerns A-375. Kind of series: Antiproliferative activity against human A-375 cells. The format is functional, cell-based.
Series [22] has as its system MCF7. Kind of series: cells. To be noted: Homo sapiens.

Sequence of Histone deacetylase 1 (Q13547 whole entry): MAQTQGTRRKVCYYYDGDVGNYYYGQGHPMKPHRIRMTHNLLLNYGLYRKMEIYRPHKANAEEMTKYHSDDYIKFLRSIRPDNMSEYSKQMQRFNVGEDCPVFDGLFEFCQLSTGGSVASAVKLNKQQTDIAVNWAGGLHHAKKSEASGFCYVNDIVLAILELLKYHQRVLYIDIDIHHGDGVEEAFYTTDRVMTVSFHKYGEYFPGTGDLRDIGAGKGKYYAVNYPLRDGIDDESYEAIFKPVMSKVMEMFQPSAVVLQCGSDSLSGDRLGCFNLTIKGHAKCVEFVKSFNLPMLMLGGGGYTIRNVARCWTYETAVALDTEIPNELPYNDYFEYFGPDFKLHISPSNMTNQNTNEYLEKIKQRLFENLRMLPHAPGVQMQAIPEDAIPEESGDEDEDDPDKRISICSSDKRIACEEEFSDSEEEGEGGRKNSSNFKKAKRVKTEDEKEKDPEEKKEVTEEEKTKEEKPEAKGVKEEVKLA

In general, GI50 refers to the concentration giving 50% growth inhibition. By IC50 is commonly meant the concentration that gives 50% inhibition. Consider `CC(=O)c1c(-c2ccc([N+](=O)[O-])cc2)cn(CCCCCC(=O)NO)c1C`, for which the GI50 in the series with MCF7 [1], with HeLa, with A549 [3] and in the series with K562 [4] was < 10 µM each time. The IC50 (in series [2]; at Histone deacetylase 1) was 0.052 µM in each case.
In the case of `COc1ccc(-c2ocnc2-c2cc(OC)c(OC)c(OC)c2)cc1OCCCCCC(=O)NO`, the IC50 with Huh-7 is 0.61 µM; in the series with HCT-116 [5], 0.61 µM; in series [6], ~1 µM; in the series with HepG2 it was 0.61 µM; in the series with 518A2, 0.61 µM; with HCT 116 TP53(-/-) it was 0.61 µM.
Consider `COc1ccc(-c2cn(CCCCCC(=O)NO)c(C)c2C(C)=O)cc1`, for which the GI50 in the series with MCF7 [1], in the series on HeLa, in the series with A549 [3] and with K562 [4] was < 10 µM each time. Moreover, the IC50 (in series [2]; on Histone deacetylase 1) was 0.052 µM in each case.
Consider `COCCOc1ccc2c(OCCCCCCCC(=O)NO)cc(=O)oc2c1`, for which the IC50 in [7] and in series [8] was > 50 µM each time.
Take `C[C@@H]1CC[C@H]2[C@@H](C)C(OCC(=O)NO)C[C@@H]3O[C@]4(C)CC[C@@H]1[C@]32OO4` (stereo partly drawn): the IC50 in the series with Plasmodium falciparum [9] came to 0.0019 µM; with HL-60 [10] it was 0.69 µM; in the series with MOLM-13 it was 0.69 µM; in series [11] it was 0.187 µM; with Plasmodium falciparum [12], 0.0019 µM; in the series on K562 [13], 0.69 µM. Also, the IC50 in the series with NALM-6 was found to be 0.15 µM; with Plasmodium falciparum [14], 0.0019 µM; in the series with HL-60 [15], 0.69 µM; in the series on HPBALL, 0.15 µM.
In the case of `O=C(NO)c1ccc(CNc2cccc3cc(-c4cccnc4)cnc23)cc1`, the IC50 in the series on HCT-116 [16] and in the series with A549 [17] was 1.29 µM in each case.
Consider `O=C(/C=C/c1ccc2c(=O)n(Cc3ccc(Cl)cc3)cnc2c1)NO`, for which the IC50 in the series with PC-3 turned out to be 0.67 µM; in the series with SW-620, 0.67 µM; in the series on NCI-H23, 0.67 µM; in series [18], 0.047 µM.
In the case of `Cc1ccc(Cn2cnc3cc(/C=C/C(=O)NO)ccc3c2=O)cc1`, the IC50 in the series with PC-3 was 0.67 µM; with SW-620 it was 0.67 µM; in the series with NCI-H23, 0.67 µM; in series [18], 0.033 µM.
Regarding `O=C(Cc1ccc(C(=O)NO)cc1)Nc1ccc2ncnc(Nc3ccc(I)cc3)c2c1`, the half-maximal inhibitory concentration (IC50) turned out to be 2.2 µM in the series on HL-60 [19]; 2.2 µM in the series on SGC-7901; 2.2 µM in the series with HCT-116 [20]; 2.2 µM with A549 [21]; 2.2 µM in the series with MDA-MB-231; 16.3 µM in [6]. For the same compound, the IC50 in the series with A-375 and in the series on MCF7 [22] was 2.2 µM throughout.
